# In paper PMC4627656, “Combining Metabolite-Based Pharmacophores with Bayesian Machine Learning Models for Mycobacterium tuberculosis Drug Discovery” (PLoS ONE, 2015):
# Tested on: not listed separately
# Experiment: in vitro
# Settings: African green monkey
row,Structure (SMILES),CC50 at 72 h [mg/L]
1,CC(=O)c1c(C)[n+]([O-])c2ccc(Cl)cc2[n+]1[O-] [SRI4],> 40
2,COc1ccc2c(c1)[n+]([O-])c(C(=O)c1cccnc1)c(C)[n+]2[O-] [SRI12],1.7
3,Cc1c(C(=O)c2cccnc2)[n+]([O-])c2cc(Cl)c(Cl)cc2[n+]1[O-] [SRI55],> 40
4,CC(C)=CCC/C(C)=C/CCC(=O)c1c(C)[n+]([O-])c2cc(Cl)c(Cl)cc2[n+]1[O-] [SRI56],4.5
5,CC(C)=CCCC(=O)c1c(C)[n+]([O-])c2cc(Cl)c(Cl)cc2[n+]1[O-] [SRI57],> 40

# Tested on: Mtb H37Rv strain
# Experiment: Resazurin (Alamar Blue) MIC assay against replicating Mtb
# Format: cell-based, Mycobacterium tuberculosis
# Settings: Mycobacterium tuberculosis, H37RV, in vitro cultured Mtb H37Rv; lowest concentration inhibiting ≥90% growth; initial hits, quinoxaline di-N-oxides, positive controls; read-out: Mtb MIC (H37Rv)
row,Structure (SMILES),MIC [mg/L]
1,"O=C(NCc1ccccn1)c1ccccc1[N+](=O)[O-] [BAS 00623753, 2-nitro-N-pyridin-2-ylmethyl-benzamide]",5
2,"c1coc(CNCc2c[nH]c3ccccc23)c1 [BAS 7571651, furan-2-ylmethyl-(1H-indol-3-ylmethyl)-amine]",40
3,"CO[C@H]1/C=C/O[C@@]2(C)Oc3c(C)c(O)c4c(O)c(c(/C=N/N5CCN(C)CC5)c(O)c4c3C2=O)NC(=O)/C(C)=C\C=C\[C@H](C)[C@H](O)[C@@H](C)[C@@H](O)[C@@H](C)[C@H](OC(C)=O)[C@@H]1C [Rifampicin, reference compound]",0.0031 to 0.012
4,CC(=O)c1c(C)[n+]([O-])c2ccc(Cl)cc2[n+]1[O-] [SRI4],5
5,Cc1c(C(=O)c2ccccc2)[n+]([O-])c2cc(Cl)ccc2[n+]1[O-] [SRI8],10
6,COc1ccc2c(c1)[n+]([O-])c(C)c(C(=O)c1ccccc1)[n+]2[O-] [SRI9],5
7,Cc1c(C(=O)c2ccccc2)[n+]([O-])c2ccc([N+](=O)[O-])cc2[n+]1[O-] [SRI10],5
8,COc1ccc2c(c1)[n+]([O-])c(C(=O)c1cccnc1)c(C)[n+]2[O-] [SRI12],0.64
9,CCCCC(=O)c1c(C)[n+]([O-])c2ccc(Cl)cc2[n+]1[O-] [SRI17],2.5
10,Cc1c(C(=O)CC(C)C)[n+]([O-])c2cc(Cl)ccc2[n+]1[O-] [SRI18],10
11,CCCCCC(=O)c1c(C)[n+]([O-])c2cc(Cl)ccc2[n+]1[O-] [SRI20],5
12,C=CCCC(=O)c1c(C)[n+]([O-])c2cc(Cl)ccc2[n+]1[O-] [SRI22],5
13,CCC(=O)c1c(CC)[n+]([O-])c2cc(Cl)ccc2[n+]1[O-] [SRI23],5
14,CCC(=O)c1c(CC)[n+]([O-])c2ccc(Cl)cc2[n+]1[O-] [SRI24],10
15,Cc1c(C(=O)C2CC2)[n+]([O-])c2ccc(Cl)cc2[n+]1[O-] [SRI25],5
16,Cc1c(C(=O)C(C)C)[n+]([O-])c2ccc(Cl)cc2[n+]1[O-] [SRI27],> 40
17,Cc1c(C(=O)C(C)C)[n+]([O-])c2cc(Cl)ccc2[n+]1[O-] [SRI28],10
18,CCCCC(=O)c1c(C)[n+]([O-])c2cc(C)ccc2[n+]1[O-] [SRI30],5
19,CCC(=O)c1c(CC)[n+]([O-])c2cc(C)ccc2[n+]1[O-] [SRI32],5
20,Cc1ccc2c(c1)[n+]([O-])c(C)c(C(=O)CC(C)C)[n+]2[O-] [SRI34],20
21,COc1ccc2c(c1)[n+]([O-])c(C(=O)CC(C)C)c(C)[n+]2[O-] [SRI43],20
22,CC(C)=CCC/C(C)=C/CCC(=O)c1c(C)[n+]([O-])c2ccc(C)cc2[n+]1[O-] [SRI48],5
23,Cc1c(C(=O)O)[n+]([O-])c2ccccc2[n+]1[O-] [SRI53],> 40
24,Cc1c(C(=O)c2cccnc2)[n+]([O-])c2cc(Cl)c(Cl)cc2[n+]1[O-] [SRI55],2.5
25,CC(C)=CCC/C(C)=C/CCC(=O)c1c(C)[n+]([O-])c2cc(Cl)c(Cl)cc2[n+]1[O-] [SRI56],2.5
26,"NNC(=O)c1ccncc1 [isoniazid, reference compound]",0.0031 to 0.012

# Same assay, conditions: Mycobacterium tuberculosis, H37RV, read-out: Mtb MIC (H37Rv), in vitro cultured Mtb H37Rv; lowest concentration inhibiting ≥90% growth; initial hits, quinoxaline di-N-oxides, positive controls
row,Structure (SMILES),MIC [mg/L]
1,CC(C)=CCCC(=O)c1c(C)[n+]([O-])c2cc(Cl)c(Cl)cc2[n+]1[O-] [SRI57],1.2

# Same assay, conditions: Mycobacterium tuberculosis, H37RV, read-out: Mtb MIC (H37Rv), synthesized BAS 00623753 and arylamide analogs (Table 1)
row,Structure (SMILES),MIC [mg/L]
1,"O=C(NCc1ccccn1)c1ccccc1[N+](=O)[O-] [BAS 00623753, 2-nitro-N-pyridin-2-ylmethyl-benzamide]",≥ 50

# Same assay, conditions: Mycobacterium tuberculosis, H37RV, synthesized BAS 00623753 and arylamide analogs (Table 1); read-out: Mtb MIC (H37Rv)
row,Structure (SMILES),MIC [mg/L]
1,CC(C)(NC(=O)c1ccccc1[N+](=O)[O-])c1ncccn1 [JSF-2176],> 50
2,O=C(NCc1ncccn1)c1ccccc1[N+](=O)[O-] [JSF-2178],> 50

# Same assay, conditions: in vitro cultured Mtb H37Rv; lowest concentration inhibiting ≥90% growth; initial hits, quinoxaline di-N-oxides, positive controls
row,Structure (SMILES),Mtb MIC (H37Rv) [mg/L]
1,"O=C(NCc1ccccn1)c1ccccc1[N+](=O)[O-] [BAS 00623753, 2-nitro-N-pyridin-2-ylmethyl-benzamide]",5
2,CC(=O)c1c(C)[n+]([O-])c2ccc(C)cc2[n+]1[O-] [SRI2],5.0
3,COc1ccc2c(c1)[n+]([O-])c(C(C)=O)c(C)[n+]2[O-] [SRI3],10
4,CC(=O)c1c(C)[n+]([O-])c2cc([N+](=O)[O-])ccc2[n+]1[O-] [SRI5],2.5
5,Cc1ccc2c(c1)[n+]([O-])c(C)c(C(=O)c1ccccc1)[n+]2[O-] [SRI6],>40
6,Cc1c(C(=O)c2ccccc2)[n+]([O-])c2ccc(Cl)cc2[n+]1[O-] [SRI7],5
7,Cc1c(C(=O)c2cccnc2)[n+]([O-])c2ccc(Cl)cc2[n+]1[O-] [SRI11],10
8,Cc1c(C(=O)c2cccnc2)[n+]([O-])c2ccc([N+](=O)[O-])cc2[n+]1[O-] [SRI13],20
9,Cc1ccc2c(c1)[n+]([O-])c(C)c(C(=O)C(F)(F)F)[n+]2[O-] [SRI14],10
10,COc1ccc2c(c1)[n+]([O-])c(C)c(C(=O)C(F)(F)F)[n+]2[O-] [SRI15],10
11,CCCCC(=O)c1c(C)[n+]([O-])c2cc(Cl)ccc2[n+]1[O-] [SRI16],5
12,Cc1c(C(=O)CC(C)C)[n+]([O-])c2ccc(Cl)cc2[n+]1[O-] [SRI19],5
13,CCCCCC(=O)c1c(C)[n+]([O-])c2ccc(Cl)cc2[n+]1[O-] [SRI21],10
14,Cc1c(C(=O)C2CC2)[n+]([O-])c2cc(Cl)ccc2[n+]1[O-] [SRI26],5
15,CC(C)=CCCC(=O)c1c(C)[n+]([O-])c2cc(Cl)ccc2[n+]1[O-] [SRI29],5
16,CCCCCC(=O)c1c(C)[n+]([O-])c2cc(C)ccc2[n+]1[O-] [SRI31],20
17,Cc1ccc2c(c1)[n+]([O-])c(C)c(C(=O)C1CC1)[n+]2[O-] [SRI33],5
18,C=CCCC(=O)c1c(C)[n+]([O-])c2cc(C)ccc2[n+]1[O-] [SRI35],4.3

row,Structure (SMILES),Mtb MIC (H37Rv) [mg/L]
1,CC(C)=CCCC(=O)c1c(C)[n+]([O-])c2cc(C)ccc2[n+]1[O-] [SRI36],10
2,CCC(=O)c1c(C)[n+]([O-])c2ccc(C)cc2[n+]1[O-] [SRI37],10
3,Cc1ccc2c(c1)[n+]([O-])c(C)c(C(=O)C(C)C)[n+]2[O-] [SRI38],10
4,CCCCC(=O)c1c(C)[n+]([O-])c2ccc(OC)cc2[n+]1[O-] [SRI39],10
5,CCCCCC(=O)c1c(C)[n+]([O-])c2ccc(OC)cc2[n+]1[O-] [SRI40],>40
6,CCC(=O)c1c(CC)[n+]([O-])c2ccc(OC)cc2[n+]1[O-] [SRI41],40
7,C=CCCC(=O)c1c(C)[n+]([O-])c2ccc(OC)cc2[n+]1[O-] [SRI44],20
8,COc1ccc2c(c1)[n+]([O-])c(C(=O)CCC=C(C)C)c(C)[n+]2[O-] [SRI45],20
9,CCC(=O)c1c(C)[n+]([O-])c2ccc(OC)cc2[n+]1[O-] [SRI46],20
10,COc1ccc2c(c1)[n+]([O-])c(C(=O)CC/C=C(\C)CCC=C(C)C)c(C)[n+]2[O-] [SRI47],20
11,CC(C)=CCC/C(C)=C/CCC(=O)c1c(C)[n+]([O-])c2ccc(Cl)cc2[n+]1[O-] [SRI49],5
12,CC(C)=CCC/C(C)=C/CCC(=O)c1c(C)[n+]([O-])c2ccccc2[n+]1[O-] [SRI51],5
13,Cc1c(C(=O)O)[n+]([O-])c2ccccc2[n+]1[O-] [SRI53],>40
14,CC(C)=CCCC(=O)c1c(C)[n+]([O-])c2cc(Cl)c(Cl)cc2[n+]1[O-] [SRI57],1.25
15,CCCCCC(=O)c1c(C)[n+]([O-])c2cc(Cl)c(Cl)cc2[n+]1[O-] [SRI59],2.5
16,Cc1c(C(=O)CC(C)C)[n+]([O-])c2cc(Cl)c(Cl)cc2[n+]1[O-] [SRI60],2.5
17,C=CCCC(=O)c1c(C)[n+]([O-])c2cc(Cl)c(Cl)cc2[n+]1[O-] [SRI61],2.5
18,Cc1c(C(=O)c2ccccc2)[n+]([O-])c2cc(Cl)c(Cl)cc2[n+]1[O-] [SRI62],2.5

# Same assay, conditions: synthesized BAS 00623753 and arylamide analogs (Table 1)
row,Structure (SMILES),Mtb MIC (H37Rv) [mg/L]
1,O=C(NCc1ccccn1)c1ccccc1 [JSF-2133],>50
2,O=C(NCCc1ccccn1)c1ccccc1[N+](=O)[O-] [JSF-2170],>50
3,O=C(NCc1cnccn1)c1ccccc1[N+](=O)[O-] [JSF-2171],>50
4,Cc1cccnc1CNC(=O)c1ccccc1[N+](=O)[O-] [JSF-2172],>50
5,Cc1ccnc(CNC(=O)c2ccccc2[N+](=O)[O-])c1 [JSF-2173],>50
6,O=C(NCc1ccc(Cl)cn1)c1ccccc1[N+](=O)[O-] [JSF-2174],>50
7,Cc1ccc(CNC(=O)c2ccccc2[N+](=O)[O-])nc1 [JSF-2175],>50
8,O=C(NCc1ccncn1)c1ccccc1[N+](=O)[O-] [JSF-2177],>50
9,O=C(NCc1ccccn1)c1ccccc1F [JSF-2208],>50
10,Cc1ccccc1C(=O)NCc1ccccn1 [JSF-2209],>50
11,O=C(NCc1ccccn1)c1ccccc1[N+](=O)[O-] [JSF-2210],>50
12,O=C(NCc1ccccn1)c1ccccc1C(F)(F)F [JSF-2211],>50
